The values that follow are results of earlier work, collected in US20250319118A1, “Prophylaxis and Treatment of Degraded Cartilage” (PhrixionLS, LLC, priority 2022, published 2025).

For series [1], the system named is osteoarthritis. The note with it: for Limitations: clinical outcomes / OA symptoms: clinical trials, osteoarthritis.
Series [2] deals with osteoarthritis. The note with it: viscosupplementation.

On to `C[C@H]1CN(C(=O)CC[C@@]2(C3CC3)NC(=O)NC2=O)CCN1c1cc(F)cc(F)c1` [GLPG1972, reference compound], for which the Efficacy versus placebo result in the series with osteoarthritis [1] (Phase-2 study) was “No significant difference versus”.

Take `C[S+](CC[C@H](N)C(=O)[O-])C[C@H]1O[C@@H](n2cnc3c(N)ncnc32)[C@H](O)[C@@H]1O` (some centres unmarked) [S-adenosyl-methionine (SAMe), S-adenosyl-methionine]: the “Limitations: clinical outcomes / OA symptoms” value in the series with osteoarthritis [1] (literature summary) is given as “Shown to improve OA symptoms,”.

hyaluronic acid [HA]: the “Benefit compared to placebo” value with osteoarthritis [2] is recorded as “no significant benefit compared to placebo”. As to Bromelain, the “Limitations: clinical outcomes / OA symptoms” value in the series on osteoarthritis [1] (literature summary) is listed as “Mixed results in clinical trials,”.

B1: Sprifermin: Drug (Trial), investigated as disease-modifier for cartilage damage (protein, UniProt O76093 28-207, looked up)
Fibroblast growth factor 18: EENVDFRIHVENQTRARDDVSRKQLRLYQLYSRTSGKHIQVLGRRISARGEDGDKYAQLLVETDTFGSQVRIKGKETEFYLCMNRKGKLVGKPDGTSKECVFIEKVLENNYTALMSAKYSGWYVGFTKKGRPRKGPKTRENQQDVHFMKRYPKGQPELQKPFKYTTVTKRSRRIRPTHPA
Turning to B1, the “Limitations: effect on cartilage (regeneration / protection)” value in the series with osteoarthritis [1] (clinical and preclinical data, literature summary) is “Demonstrated positive effects”.
